In PMC6325200, “Effects of Microplate Type and Broth Additives on Microdilution MIC Susceptibility Assays” (Antimicrobial Agents and Chemotherapy, 2018):
Converted amounts (≈) assume the structure as drawn. Read-outs that look alike come from different tables or passages of the source.

Assays:
[1] = system: E. faecalis ATCC 29212; assay: microbe, parasite or virus in culture; conditions: n = 2
Procedure: (§1) A positive control of a row of just the bacteria and a negative control of only the medium were included for every plate tested.
(§2) The compounds along with standard antibiotics were serially diluted 2-fold across the 96-well plates. […] A sample of each culture was then diluted 40-fold in fresh MH broth (in presence and absence of Tween) and incubated at 37°C for 2 to 3 h.

[2] = system: S. pneumoniae ATCC 33440; assay: microbe, parasite or virus in culture; conditions: n = 2
Procedure: as §1, §2

[3] = system: S. pneumoniae ATCC 700677 (MDR); assay: microbe, parasite or virus in culture; conditions: n = 2
Procedure: as §1, §2

[4] = system: MSSA S. aureus ATCC 25923; assay: microbe, parasite or virus in culture; conditions: n = 2
Procedure: as §1, §2

[5] = system: S. aureus GISA NRS 2; ATCC 700698; assay: microbe, parasite or virus in culture; conditions: n = 2
Procedure: as §1, §2

[6] = cited from earlier work
Excerpt: Other assay additives can affect MIC values. […] This in turn translates into reduced ...

[7] = system: S. pyogenes ATCC 12344; conditions: n = 2
Procedure: as §1, §2

[8] = system: MRSA ATCC 43300
Procedure: as §1, §2
For experiments in the presence of surfactant, 2% beractant (25 mg/ml) was added to the mid-log-phase cultures and mixed gently and added to all the 96-well plates. For experiments in the presence of serum, a mixture of 50% of human serum along with 50% MHB was prepared and used throughout the experiment.

[9] = cited from earlier work; remark: listed apart in the source
Excerpt: Other assay additives can affect MIC values. […] Plasma protein binding has been implicated as a major factor limiting the active free concentration of many clinically important antibiotics ([37][–][42]).

[10] = system: MRSA; conditions: literature value; cited from earlier work
Excerpt: TABLE 1 Literature MIC values for tested antibiotics | column: MIC (µg/ml) (reference[s]) / MRSA

[11] = cited from earlier work; for concentration found, % of that expected: PS microtiter plates, [14C]oritavancin
Procedure: The majority of antibiotic stock solutions for testing are prepared in water, phosphate buffer, or pH-adjusted aqueous solution (106 out of 139 reported in CLSI M100 [see Table 6A, “Solvents and diluents for preparation of stock solutions of antimicrobial agents”]) ([3]). […] Furthermore, the CLSI reference MIC quality control range tabulated for dalbavancin an ...

CCCCCCCCCCNCCN[C@@]1(C)C[C@H](O[C@H]2[C@H](Oc3c4cc5cc3Oc3ccc(cc3Cl)[C@@H](O)[C@@H](NC(=O)[C@@H](CC(C)C)NC)C(=O)N[C@@H](CC(N)=O)C(=O)N[C@H]5C(=O)N[C@H]3C(=O)N[C@H](C(=O)N[C@H](C(=O)O)c5cc(O)c(CNCP(=O)(O)O)c(O)c5-c5cc3ccc5O)[C@H](O)c3ccc(c(Cl)c3)O4)O[C@H](CO)[C@@H](O)[C@@H]2O)O[C@@H](C)[C@H]1O [Telavancin, telavancin]
MIC ([1]; Corning NBS, MHB +T80): 0.06 µg/mL (≈ 0.0342 µM) | MIC ([1]; Corning NBS, MHB -T80): 0.06 to 0.125 µg/mL | MIC ([1]; Corning PS, MHB +T80): 0.03 to 0.06 µg/mL | MIC ([1]; Corning PS, MHB -T80): 0.125 to 0.5 µg/mL | MIC ([1]; Corning TC, MHB +T80): 0.06 to 0.125 µg/mL | MIC ([1]; Corning TC, MHB -T80): 0.5 to 4 µg/mL | MIC ([2]; Corning NBS, MHB +T80): 0.125 µg/mL (≈ 0.0712 µM) | MIC ([2]; Corning NBS, MHB -T80): 0.125 µg/mL (≈ 0.0712 µM) | MIC ([2]; Corning PS, MHB +T80): 0.125 µg/mL (≈ 0.0712 µM) | MIC ([2]; Corning PS, MHB -T80): 0.5 to 4 µg/mL | MIC ([2]; Corning TC, MHB +T80): 0.25 µg/mL (≈ 0.142 µM) | MIC ([2]; Corning TC, MHB -T80): 1 to 2 µg/mL | MIC ([3]; Corning NBS, MHB +T80): 0.06 to 0.125 µg/mL | MIC ([3]; Corning NBS, MHB -T80): 0.03 to 0.06 µg/mL | MIC ([3]; Corning PS, MHB +T80): 0.06 to 0.125 µg/mL | MIC ([3]; Corning PS, MHB -T80): 0.06 µg/mL (≈ 0.0342 µM) | MIC ([3]; Corning TC, MHB +T80): 0.125 µg/mL (≈ 0.0712 µM) | MIC ([3]; Corning TC, MHB -T80): 0.5 to 2 µg/mL | MIC ([4]; Corning NBS, MHB +T80): 0.125 to 0.25 µg/mL | MIC ([4]; Corning NBS, MHB -T80): 0.06 to 0.125 µg/mL | MIC ([4]; Corning PS, MHB +T80): 0.25 to 0.5 µg/mL | MIC ([4]; Corning PS, MHB -T80): 0.25 to 2 µg/mL | MIC ([4]; Corning TC, MHB +T80): 0.25 µg/mL (≈ 0.142 µM) | MIC ([4]; Corning TC, MHB -T80): 0.5 to 2 µg/mL | MIC ([5]; Corning NBS, MHB +T80): 0.125 µg/mL (≈ 0.0712 µM) | MIC ([5]; Corning NBS, MHB -T80): 0.06 to 0.125 µg/mL | MIC ([5]; Corning PS, MHB +T80): 0.125 µg/mL (≈ 0.0712 µM) | MIC ([5]; Corning PS, MHB -T80): 0.125 to 0.5 µg/mL | MIC ([5]; Corning TC, MHB +T80): 0.25 µg/mL (≈ 0.142 µM) | MIC ([5]; Corning TC, MHB -T80): 1 to 8 µg/mL | half-life [6]: 8 h | MIC ([7]; Corning NBS, MHB +T80): 3 to 15 ng/mL | MIC ([7]; Corning NBS, MHB -T80): ≤ 3 ng/mL | MIC ([7]; Corning PS, MHB -T80): ≤ 3 ng/mL | MIC ([7]; Corning TC, MHB +T80): 7 to 15 ng/mL | MIC ([7]; Corning TC, MHB -T80): ≤ 3 ng/mL | MIC ([8]; Corning NBS, MH + 2% LHB, 2% LS, n = 2): 0.125 µg/mL | MIC ([8]; Corning NBS, MH + 2% LHB, 50% HS, n = 2): 0.25 µg/mL | MIC ([8]; Corning NBS, MH + 2% LHB, no additive, n = 2): 0.06 to 0.125 µg/mL | MIC ([8]; Corning NBS, MH + T80, 2% LS, n = 2): 0.06 to 0.125 µg/mL | MIC ([8]; Corning NBS, MH + T80, 50% HS, n = 2): 0.25 µg/mL | MIC ([8]; Corning NBS, MH, 2% LS, n = 2): 0.125 µg/mL (≈ 0.0712 µM) | MIC ([8]; Corning NBS, MH, 50% HS, n = 2): 0.25 µg/mL (≈ 0.142 µM) | MIC ([8]; Corning PS, MH + 2% LHB, 2% LS, n = 2): 0.125 µg/mL | MIC ([8]; Corning PS, MH + 2% LHB, 50% HS, n = 2): 0.125 to 0.25 µg/mL | MIC ([8]; Corning PS, MH + 2% LHB, no additive, n = 2): 0.06 µg/mL | MIC ([8]; Corning PS, MH + T80, 2% LS, n = 2): 0.06 to 0.25 µg/mL | MIC ([8]; Corning PS, MH + T80, 50% HS, n = 2): 0.25 µg/mL | MIC ([8]; Corning PS, MH, 2% LS, n = 2): 0.03 to 0.125 µg/mL | MIC ([8]; Corning PS, MH, 50% HS, n = 2): 0.125 to 0.25 µg/mL | MIC ([8]; Corning TC, MH + 2% LHB, 2% LS, n = 2): 0.25 to 1 µg/mL | MIC ([8]; Corning TC, MH + 2% LHB, 50% HS, n = 2): 2 to 8 µg/mL | MIC ([8]; Corning TC, MH + 2% LHB, no additive, n = 2): 0.125 µg/mL | MIC ([8]; Corning TC, MH + T80, 2% LS, n = 2): 0.125 to 0.25 µg/mL | MIC ([8]; Corning TC, MH + T80, 50% HS, n = 2): 0.25 to 1 µg/mL | MIC ([8]; Corning TC, MH, 2% LS, n = 2): 0.25 to 0.5 µg/mL | MIC ([8]; Corning TC, MH, 50% HS, n = 2): 0.5 to 1 µg/mL | MIC ([8]; Corning flat NBS plate, MHB +0.002% T80, no further additive, n = 2): 0.125 µg/mL (≈ 0.0712 µM) | MIC ([8]; Corning flat NBS plate, MHB −T80, no additive, n = 2): 0.03 to 0.06 µg/mL | MIC ([8]; Corning flat PS plate, MHB +0.002% T80, no further additive, n = 2): 0.03 to 0.06 µg/mL | MIC ([8]; Corning flat PS plate, MHB −T80, no additive, n = 2): 0.06 µg/mL (≈ 0.0342 µM) | MIC ([8]; Corning flat TC plate, MHB +0.002% T80, no further additive, n = 2): 0.125 to 0.25 µg/mL | MIC ([8]; Corning flat TC plate, MHB −T80, no additive, n = 2): 1 µg/mL (≈ 0.57 µM) | MIC ([8]; Nunc U TC plate, MHB +0.002% T80, n = 2): 0.25 to 0.5 µg/mL | MIC ([8]; Nunc U TC plate, MHB −T80, n = 2): 0.5 µg/mL (≈ 0.285 µM) | MIC ([8]; Nunc flat PS plate, MHB +0.002% T80, n = 2): 0.06 µg/mL (≈ 0.0342 µM) | MIC ([8]; Nunc flat PS plate, MHB −T80, n = 2): 0.06 µg/mL (≈ 0.0342 µM) | MIC ([8]; Nunc flat TC plate, MHB +0.002% T80, n = 2): 0.125 to 0.25 µg/mL | MIC ([8]; Nunc flat TC plate, MHB −T80, n = 2): 0.5 to 1 µg/mL | MIC ([8]; TC plates without additive): 0.5 to 1 µg/mL | MIC ([8]; Trek PS, MH + 2% LHB, 2% LS, n = 2): 0.06 to 0.25 µg/mL | MIC ([8]; Trek PS, MH + 2% LHB, 50% HS, n = 2): 0.06 to 0.125 µg/mL | MIC ([8]; Trek PS, MH + 2% LHB, no additive, n = 2): 0.015 µg/mL | MIC ([8]; Trek PS, MH + T80, 2% LS, n = 2): 0.06 µg/mL | MIC ([8]; Trek PS, MH + T80, 50% HS, n = 2): 0.125 to 0.25 µg/mL | MIC ([8]; Trek PS, MH, 2% LS, n = 2): 0.03 to 0.06 µg/mL | MIC ([8]; Trek PS, MH, 50% HS, n = 2): 0.125 µg/mL (≈ 0.0712 µM) | MIC ([8]; Trek flat PS plate, MHB +0.002% T80, no further additive, n = 2): 0.03 to 0.06 µg/mL | MIC ([8]; Trek flat PS plate, MHB −T80, no additive, n = 2): 0.03 to 0.06 µg/mL | MIC ([8]; all 3 untreated PS plates, with and without added T80): around 0.06 µg/ml | protein binding ([9]; literature values, reference given): 90 to 93% | MIC (literature) [10]: 0.06 ([66], [67]) µg/ml

oritavancin
half-life ([6]; in vivo): 240 to 408 h | concentration found, % of that expected ([11]; 1 µg/ml): < 10% | concentration found, % of that expected ([11]; 4 µg/ml): 35% | concentration found, % of that expected ([11]; 16 µg/ml): approximately 70% | underestimation of MIC values in the absence of added polysorbate 80 [11]: 16- to 32 fold | protein binding [9]: 82 to 90%
